US10160771B2, “Hepatitis C virus inhibitors and uses thereof in preparation of drugs” (priority 2014, dated 2018)

Tests used:
[1] = tested on: HCV genotype 1b (HCV-1b) replicon cells; experiment: HCV genotype 1b replicon luciferase assay (EC50); format: cell-based, hepatitis C virus genotype 1b (Con1 clone); details: 3 days, luciferase (Bright-Glo)
Procedure: (§1) The EC50 and CC50 values of anti-HCV compounds were determined by HCV genotype 1a (HCV-1a) and 1B (HCV-1b) stable transfer replication (replicon) cells. The source of genotype 1a replicon is H77 clones containing K1691R, K2040R and S2204I adaptive mutations. The source of genotype 1b replicon is Con1 clones containing E1202G, T1280I and K1846T adaptive mutations.
(§2) HCV 1a (HCV-1a) and 1b (HCV-1b) gene subtype replicon system contains the related HCV gene subtype non structural protein gene, G418 resistance gene NEO and luciferase gene, which results in that HCV related protein and luciferase can be stably expressed in cells. By detecting the level of expression of luciferase gene, the level of HCV replication can be determined. Therefore, the system is used as a model for screening the activity of anti-HCV compound in vitro.
(§3) HCV Replicon Cell Lines: HCV-1a and HCV-1b Cells
(§4) The compound powder was dissolved in 100% DMSO. Then the compound was diluted 5 times with 6 points, and added into the cell plate with Echo liquid handler. Ensure the final concentration of DMSO was 0.5%. Each compound was tested in double holes. Maximum initial concentration was 100, 10 or 1 nM, 5 times dilution, 6 points.
(§5) b) Cell Culture (HCV-1a or HCV-1b Replicon Cell):
(§6) 1) absorbing the culture supernatant of the cell culture and washing the cells with 10 mL PBS.
(§7) 2) adding preheated pancreatin to the washed cell culture flasks, rotating culture bottle to make the bottom of the culture bottle uniformly covered by pancreatin, then placed into 37° C., 5% CO2 incubator to digest.
(§8) 3) suspending cells in each T150 culture flask with 10-15 mL culture medium, absorbing 0.1 mL liquid and diluting 2 times by trypan blue solution as counted.
(§9) 4) diluting cells to 8×10^4/mL with the culture medium, adding the diluted cells into the compound-containing 96-well plate (Greiner, Cat.#655090) (100 μL/well, 8000 cells/well) with automatic liquid separator (Thermo Scientific). Then place into a 37° C., 5% CO2 incubator for 3 days. Cell control well: no compound, only containing 0.5% DMSO.
(§10) 6) then adding luciferase luminescence substrate Bright-Glo, after incubation for 5 minutes, detecting the luciferase activity by chemical luminescence detection system Envison (wavelength>700 nm); analyzing the anti-HCV inhibitory activity of the compounds according to luciferase data, which was used to calculate EC50 values.
(§11) The EC50 or CC50 values were obtained by nonlinear fitting analysis on inhibition percentage (inh %) data with GraphPad Prism software.

[2] = tested on: HCV genotype 1a (HCV-1a) replicon cells; experiment: HCV genotype 1a replicon luciferase assay (EC50); format: cell-based, hepatitis C virus genotype 1a (H77 clone); details: 3 days, luciferase (Bright-Glo)
Procedure: as §1, §2, §3, §4, §5, §6, §7, §8, §9, §10, §11

| SMILES | EC50 ([1]; Hepatitis C virus, 72 h) [nM] | other results |
| --- | --- | --- |
| COC(=O)N[C@H](C(=O)N1CCC[C@H]1c1ncc(-c2ccc(-c3ccc([C@H](C)NC(=O)[C@H]4CCCC[C@H]4C(=O)N(NC(=O)OC)C(C)C)cc3)cc2)[nH]1)C(C)C [AA_097] | 10 to 100 |  |
| COC(=O)N[C@H](C(=O)N1CCC[C@H]1c1ncc(-c2ccc(-c3ccc(-c4cnc([C@@H]5C6CCC(C6)[C@H]5C(=O)NC5(C(=O)NCC(F)F)CCCCC5)[nH]4)cc3)cc2)[nH]1)C(C)C (stereo partly shown) [AA_275] | 0.001 to 0.1 | EC50 ([2]; Hepatitis C virus, 72 h): 10 to 100 nM |
| COC(=O)N[C@H](C(=O)N[C@H]1C2CCC(C2)C1c1ncc(-c2ccc(-c3ccc(-c4cnc([C@@H]5CCCN5C(=O)[C@@H](NC(=O)OC)C(C)C)[nH]4)cc3)cc2)[nH]1)C(C)C (stereo partly shown) [AA_286] | 0.001 to 0.1 | EC50 ([2]; Hepatitis C virus, 72 h): 10 to 100 nM |
| COC(=O)N[C@H](C(=O)N1CCC[C@H]1c1ncc(-c2ccc(-c3ccc(-c4cnc(C5C6CCC(O6)[C@H]5C(=O)N(NC(=O)OC)C(C)C)[nH]4)cc3)cc2)[nH]1)C(C)C (stereo partly shown) [AA_095] | 1 to 10 |  |
| COC(=O)NC(C(=O)N1CCC[C@H]1c1ncc(-c2ccc(-c3ccc4cc(-c5cnc(C6CCCC[C@H]6C(=O)N(NC(=O)OC)C(C)C)[nH]5)ccc4c3)cc2)[nH]1)C1CCOC1 (stereo partly shown) [AA_076] | 1 to 10 |  |
| COC(=O)N[C@H](C(=O)N1CCC[C@H]1c1ncc(-c2ccc(-c3ccc(-c4cnc(C5CCCC[C@H]5C(=O)N5CCCCC5)[nH]4)cc3)cc2)[nH]1)C(C)C (stereo partly shown) [AA_057] | 10 to 100 |  |
| COC(=O)N[C@H](C(=O)N1CCC[C@H]1c1ncc(-c2ccc(-c3ccc(-c4ccc(C5CCCC5C(=O)NCc5cccnc5)[nH]4)cc3)cc2)[nH]1)[C@@H](C)OC (stereo partly shown) [AG_096] | 0.001 to 0.1 | EC50 ([2]; Hepatitis C virus, 72 h): 10 to 100 nM |
| COC(=O)N[C@H](C(=O)N1CCC[C@H]1c1ncc(-c2ccc(-c3ccc(-c4cnc(C5CCCC[C@H]5C(=O)N5CCNC(=O)C5)[nH]4)cc3)cc2)[nH]1)C(C)C (stereo partly shown) [AA_054] | 0.101 to 1 |  |
| COC(=O)CN(C(=O)[C@@H]1CCCCC1c1ncc(-c2ccc(-c3ccc(-c4cnc([C@@H]5CCCN5C(=O)[C@@H](NC(=O)OC)C(C)C)[nH]4)cc3)cc2)[nH]1)C(C)C (stereo partly shown) [AA_063] | 1 to 10 |  |
| COC(=O)N[C@H](C(=O)N1CCC[C@H]1c1ncc(-c2ccc(-c3ccc(-c4cnc([C@@H]5[C@H]6CC[C@H](C6)[C@H]5C(=O)N[C@@H](C(=O)c5ccccc5)C(C)C)[nH]4)cc3)cc2)[nH]1)C(C)C [AA_293_ENDOA2] | 0.001 to 0.1 | EC50 ([2]; Hepatitis C virus, 72 h): 1 to 10 nM |
| COC(=O)N[C@H](C(=O)N1CCC[C@H]1c1cc(Cl)c(-c2ccc(-c3ccc(-c4cnc([C@@H]5CCCN5C(=O)[C@@H](NC(=O)OC)[C@@H](C)OC)[nH]4)cc3)cc2)[nH]1)[C@@H](C)OC [AG_095] | 0.001 to 0.1 | EC50 ([2]; Hepatitis C virus, 72 h): 0.101 to 1 nM |
| CNC(=O)CN(C(=O)C1=C(c2ncc(-c3ccc(-c4ccc(-c5cnc([C@@H]6CCCN6C(=O)[C@@H](NC(=O)OC)C(C)C)[nH]5)cc4)cc3)[nH]2)CCC1)C(C)C [AA_065] | 1 to 10 |  |
| COC(=O)N[C@H](C(=O)N1CCC[C@H]1c1ncc(-c2ccc(-c3ccc(-c4cnc([C@@H]5[C@H]6CC[C@H](C6)[C@H]5C(=O)NCc5cncc(F)c5)[nH]4)cc3)cc2)[nH]1)C(C)C [AA_287_ENDOA2] | 0.001 to 0.1 | EC50 ([2]; Hepatitis C virus, 72 h): 0.101 to 1 nM |
| COC(=O)NN(C(=O)C1C2CCC(O2)[C@H]1c1ncc(-c2ccc(-c3ccc4cc(-c5cnc(C6CCCC[C@H]6C(=O)N(NC(=O)OC)C(C)C)[nH]5)ccc4c3)cc2)[nH]1)C(C)C (stereo partly shown) [AA_092] | 10 to 100 |  |
| COC(=O)N[C@H](C(=O)N1CCC[C@H]1c1ncc(-c2ccc(-c3ccc(-c4cnc(C5=C(C(=O)N(CC(=O)NC6CC6)C(C)C)CCC5)[nH]4)cc3)cc2)[nH]1)C(C)C [AA_064] | 1 to 10 |  |
| COC(=O)N[C@H](C(=O)N1CCC[C@H]1c1ncc(-c2ccc3cc(-c4ccc(-c5cnc([C@H]6CCCC[C@H]6C(=O)N(NC(=O)OC)C(C)C)[nH]5)cc4)ccc3c2)[nH]1)C(C)C [AA_090_B] | 1 to 10 |  |
| COC(=O)N[C@H](C(=O)N1CCC[C@H]1c1ncc(-c2ccc(-c3ccc(-c4cnc(C5=C(C(=O)N(CC(=O)O)C(C)C)CCC5)[nH]4)cc3)cc2)[nH]1)C(C)C [AA_047] | 10 to 100 |  |
| COC(=O)N[C@H](C(=O)N1CCC[C@H]1c1ncc(-c2ccc(-c3ccc([C@@H](C)NC(=O)[C@H]4CCCC[C@H]4C(=O)N(NC(=O)OC)C(C)C)cc3)cc2)[nH]1)C(C)C [AA_096] | 10 to 100 |  |

| SMILES | EC50 ([1]; Hepatitis C virus, 72 h) [nM] | other results |
| --- | --- | --- |
| COC(=O)N[C@H](C(=O)N1CCC[C@H]1c1ncc(-c2ccc(-c3ccc(-c4cnc([C@@H]5[C@H]6CC[C@H](C6)[C@H]5C(=O)N[C@@H](C)c5nccs5)[nH]4)cc3)cc2)[nH]1)C(C)C [AA_279_ENDOA2_A] | 0.001 to 0.1 | EC50 ([2]; Hepatitis C virus, 72 h): 0.101 to 1 nM |
| CCOC(=O)[C@@H](NC(=O)[C@@H]1[C@@H]2CC[C@@H](C2)[C@H]1c1ncc(-c2ccc(-c3ccc(-c4cnc([C@@H]5CCCN5C(=O)[C@@H](NC(=O)OC)C(C)C)[nH]4)cc3)cc2)[nH]1)C(C)C [AA_297_ENDOA2] | 0.101 to 1 | EC50 ([2]; Hepatitis C virus, 72 h): 10 to 100 nM |
| COC(=O)N[C@H](C(=O)N1CCC[C@H]1c1ncc(-c2ccc(-c3ccc(-c4cnc([C@@H]5[C@H]6CC[C@H](C6)[C@H]5C(=O)N[C@H](C)c5cccnc5F)[nH]4)cc3)cc2)[nH]1)C(C)C [AA_283_ENDOA2_A] | 0.001 to 0.1 | EC50 ([2]; Hepatitis C virus, 72 h): 1 to 10 nM |
| COC(=O)N[C@H](C(=O)N1CCC[C@H]1c1ncc(-c2ccc(-c3ccc(-c4cnc(C5=C(C(=O)NC(C)C)CCC5)[nH]4)cc3)cc2)[nH]1)C(C)C [AA_027] | 10 to 100 |  |
| COC(=O)N[C@H](C(=O)N1CCC[C@H]1c1ccc(-c2ccc(-c3ccc(-c4cnc([C@@H]5CCCN5C(=O)C5(NC(=O)OC)CC5)[nH]4)cc3)cc2)[nH]1)C(C)C [AG_097] |  | EC50 [1]: 0.001 to 0.1 nM; EC50 [2]: 10 to 100 nM |
| COC(=O)N[C@H](C(=O)N1CCC[C@H]1c1ncc(-c2ccc3cc(-c4cnc(C5CCCC[C@H]5C(=O)N(NC(=O)OC)C(C)C)[nH]4)ccc3c2)[nH]1)C(C)C (stereo partly shown) [AA_079] | 10 to 100 |  |
| COC(=O)N[C@H](C(=O)N1CCC[C@H]1c1ncc(-c2ccc3cc(-c4ccc(-c5cnc([C@@H]6C7CCC(O7)[C@@H]6C(=O)N(NC(=O)OC)C(C)C)[nH]5)cc4)ccc3c2)[nH]1)C(C)C (stereo partly shown) [AA_107] | 10 to 100 |  |
| COC(=O)NC(C(=O)C1CCCCC1c1ncc(-c2ccc(-c3ccc(-c4cnc(C5CCCC[C@H]5C(=O)N(NC(=O)OC)C(C)C)[nH]4)cc3)cc2)[nH]1)C(C)C (stereo partly shown) [AA_029] | 10 to 100 |  |
| COC(=O)N[C@H](C(=O)N1CCC[C@H]1c1ncc(-c2ccc(-c3ccc(-c4cnc(C5CCCC[C@H]5C(=O)NCC5CC5)[nH]4)cc3)cc2)[nH]1)C(C)C (stereo partly shown) [AA_115] | 1 to 10 |  |
| COC(=O)N[C@H](C(=O)N1CCC[C@H]1c1ncc(-c2ccc(-c3ccc(-c4cnc(C5CCCC[C@H]5C(=O)N5CCCC5)[nH]4)cc3)cc2)[nH]1)C(C)C (stereo partly shown) [AA_055] | 1 to 10 |  |
| COCCNC(=O)[C@@H]1CCCCC1c1ncc(-c2ccc(-c3ccc(-c4cnc([C@@H]5CCCN5C(=O)[C@@H](NC(=O)OC)C(C)C)[nH]4)cc3)cc2)[nH]1 (stereo partly shown) [AA_114] | 1 to 10 |  |
| COC(=O)N[C@H](C(=O)N1CCC[C@H]1c1ncc(-c2ccc(-c3ccc(-c4cnc(C5C6CCC(C6)[C@H]5C(=O)N(NC(=O)OC)C(C)C)[nH]4)cc3)cc2)[nH]1)C(C)C (stereo partly shown) [AA_016] |  | EC50 [1]: 0.101 to 1 nM |
| COCCCNC(=O)[C@@H]1CCCCC1c1ncc(-c2ccc(-c3ccc(-c4cnc([C@@H]5CCCN5C(=O)[C@@H](NC(=O)OC)C(C)C)[nH]4)cc3)cc2)[nH]1 (stereo partly shown) [AA_116] | 1 to 10 |  |
| COC(=O)N[C@H](C(=O)N1CCC[C@H]1c1ncc(-c2ccc(-c3ccc(-c4cnc(C5CCCC[C@H]5C(=O)N5CCOCC5)[nH]4)cc3)cc2)[nH]1)C(C)C (stereo partly shown) [AA_056] | 1 to 10 |  |
| COC(=O)N[C@H](C(=O)N1CCC[C@H]1c1ncc(-c2ccc3cc(-c4ccc(-c5cnc([C@@H]6CCCC[C@@H]6C(=O)N(NC(=O)OC)C(C)C)[nH]5)cc4)ccc3c2)[nH]1)C(C)C [AA_090_A] | 1 to 10 |  |
| COC(=O)N[C@H](C(=O)N1CCC[C@H]1c1ncc(-c2ccc(-c3ccc(-c4cnc(C5C6C=CC(C6)[C@H]5C(=O)N(NC(=O)OC)C(C)C)[nH]4)cc3)cc2)[nH]1)C(C)C (stereo partly shown) [AA_032] | 0.101 to 1 |  |
| COC(=O)N[C@H](C(=O)N1CCC[C@H]1c1ncc(-c2ccc3cc(-c4ccc(-c5cnc([C@H]6C7CCC(O7)[C@H]6C(=O)N(NC(=O)OC)C(C)C)[nH]5)cc4)ccc3c2)[nH]1)C(C)C (stereo partly shown) [AA_106] | 10 to 100 |  |
| COC(=O)NC(C(=O)[C@@H]1CCCCC1c1ncc(-c2ccc(-c3ccc4c(c3)cc3n4C(c4ccc(F)cc4)Oc4cc(-c5cnc([C@@H]6CCCN6C(=O)[C@@H](NC(=O)OC)C(C)C)[nH]5)ccc4-3)cc2)[nH]1)C(C)C (stereo partly shown) [AA_089] | 1 to 10 |  |
